What was measured:
Type in all cases: in vivo, Arabidopsis thaliana
Arabidopsis seedlings [1] = assay: Somatic embryogenesis from germinated Arabidopsis seeds in liquid medium with 1 μM 2,4-D (containers)
Description: The chemical screen was based on a modified version of an Arabidopsis somatic embryogenesis protocol that uses germinated seeds as explants (see Kobayashi et al., 2010 Kobayashi T, Nagayama Y, Higashi K and Kobayashi M. (2010). Establishment of a tissue culture system for somatic embryogenesis from germinating embryos of Arabidopsis thaliana Plant Biotech. 27: 359-364). In the original protocol, seeds were germinated on solid medium for one day, then the embryos were removed from the seed coat and transferred to solid media containing 4.5 μM 2,4-D to stimulate somatic embryo development. In this example, the protocol is simplified by germinating and culturing the seeds continuously in liquid medium containing 1 μM 2,4-D. Under optimized culture conditions (circa 30 seeds in 30 ml medium in 100 ml containers) approximately 18% of Col0 seeds form somatic embryos.
Approximately 10 surface-sterilized Columbia (Col-0) seeds were added to each well. The seeds were stratified at 4° C. in the dark for two days and then grown in on a rotary shaker (100 rpm/min) on a 16 h/8 h day/night cycle at 25° C. The number of seedlings that formed somatic embryos was counted two weeks later. Candidate compounds identified in the first screen were reordered (Chembridge or Maybridge), and re-tested in a second screen under the same conditions as the primary screen, but with a larger sample number (one 96-well microtitre plate/compound). Positive compounds were analysed using ChemMine (http//bioweb.ucr.edu/ChemMineV2/), ChemSpider (http//www.chemsider.com/) and the ZINC database (http://zinc.docking.org) for analogues with a known biological function.
All subsequent experiments were performed under the conditions described above, but using 100 ml containers (Greiner) containing 30 ml of medium media using approximately 30 seeds/container. All hormones were ordered from Duchefa and Dicamba from Sigma-Aldrich.

Arabidopsis seedlings [2] = assay: Time course of somatic embryo development, morphology and ENOD4L::GFP / LEC1::LEC1:GFP embryo markers
Protocol: The effect of the compounds on seedlings, without 2,4-D, was tested by germinating seedlings on MS10 solidified with 1% agar, and supplemented with 25 μM compound or DMSO. The ENOD4L promoter comprises a 1035 bp promoter from Brassica napus (AB098076.1), which was cloned in front of green fluorescent protein (GFP). A 3110 bp DNA fragment comprising 1292 bp upstream of the LEC1 translational start site and the entire LEC1 protein coding region was cloned in front of green fluorescent protein (GFP). These vectors were transformed to Arabidopsis ecotype Columbia (Col-0).
Control and C#3-treated cultures were examined at different time points in their development to determine the effect of C#3 on the course of somatic embryo development. Differences between the control and C#3-treated cultures were visible at about four days of culture. The epidermal and cortex cells of the root elongation zone and hypocotyl in the control seedlings increased in size, but not in the C#3-treated seedlings. On the sixth day of culture the differences between the two cultures was more pronounced. […] Callus was present on the tips of the cotyledons in circa 10% of the control seedlings, and up to 70% of the C#3 treated seedlings. This callus comprised loose, large cells on the outside, and smaller, denser cells on the on inside.
The timing and location of somatic embryo formation in control and compound-treated cultures was examined in more detail using two early embryo expressed marker genes, ENOD4-like (ENOD4L::GFP), and LEAFY COTYLEDON1 (LEC1::LEC1:GFP). Expression of ENOD4L::GFP and LEC1:GFP in zygotic embryos was observed from the zygote- and two-celled embryo proper stage onward, respectively. […] The GFP-positive sectors increased in size over the next few days, and on the sixth day of culture, GFP-positive globular embryos could be distinguished. The only difference between the C#3-treated and control cultures with respect to embryo marker expression was the number of seedlings displaying GFP fluorescence, which was higher in the C#3-treated cultures.

Arabidopsis seedlings [3] = assay: NAA induced somatic embryogenesis with or without C#3
Protocol: The ability of C#3 to enhance embryogenesis in the presence of other auxins was tested; namely the synthetic auxin naphthalene-1-acetic acid (NAA). […] C#3 therefore enhances the developmental responses that are activated by auxin treatment. Compound C#3 is therefore able to potentiate the effect of other auxins.

germinating seeds = assay: Developmental competence: C#3 added at different time points after start of culture
Protocol: The competence of an explant for in vitro regeneration is determined for a large part by its developmental state. The developmental competence of germinating seedlings to respond to C#3 was examined by adding C#3 at different time points after the start of culture. Seeds were stratified at 4° C. in media containing 1 μM 2,4-D. 25 μM C#3 or the equivalent volume of DMSO (control) was added to the media at different time points after the cultures were transferred to 25° C. The number of seedlings with somatic embryos was determined after two weeks of culture.

Arabidopsis seedlings [4] = assay: Somatic embryo formation at 0 to 2 μM 2,4-D with or without C#3
Description: 2,4-D is widely used to induce somatic embryogenesis from plant explant. In Arabidopsis immature zygotic embryos occasionally form somatic embryos when grown in basal medium, while germinating embryos or other vegetative tissues are unable to form embryos. […] Compound #3 therefore potentiates the effect of auxin 2,4-D. As shown in the micrograph in FIG. 7B, at the lowest effective concentration of C#3, areas of dense, light green embryogenic tissue (arrows) were formed, rather than histodifferentiated, bipolar somatic embryos.

[5] = 25 μM compound, 1 μM 2,4-D, FIG. 1

## O=C(O)COc1ccc(Cl)cc1Cl [2,4-D, 2,4 dichlorophenoxyacetic acid, reference compound]
Arabidopsis seedlings [1]; 1 μM 2,4-D alone, Col0, circa 30 seeds in 30 ml medium
  seeds forming somatic embryos: approximately 18%

## Cc1ccccc1N(C)S(=O)(=O)c1ccc(Cl)cc1 [C#3, 4-chloro-N-methyl-N-(2-methylphenyl)benzenesulfonamide]
Arabidopsis seedlings [2]; embryo marker expression
  number of seedlings displaying GFP fluorescence versus control: higher
Arabidopsis seedlings [2]; region of the shoot meristem
  first detection of ENOD4L::GFP and LEC1:GFP marker expression: starting from day four of culture
Arabidopsis seedlings [2]; sixth day of culture
  callus formation in root/hypocotyl region: formed a large, connected mass of vascular-derived callus
  cell loosening and detachment in hypocotyl and root: to a lesser extent than the control
Arabidopsis seedlings [2]; sixth day of culture, control circa 10%
  seedlings with callus on the tips of the cotyledons: up to 70%
Arabidopsis seedlings [2]; tenth day of culture
  number of embryogenic seedlings compared to control cultures: much higher
Arabidopsis seedlings [3]; 25 μM C#3 with 10 μM NAA
  effect on NAA induced somatic embryogenesis: enhanced
Arabidopsis seedlings [1]; [5]
  level of SE, percentage of seedlings with somatic embryos, compared to control of 1 μM 2,4-D alone: significantly increases the level of SE
  potency as inducer of SE: particularly potent inducers
Arabidopsis seedlings [1]; 10 to 50 μM C#3, 1 μM 2,4-D, control circa 20%
  seedlings with somatic embryo development: approximately 70%
Arabidopsis seedlings [1]; ecotypes other than Col0
  number of somatic embryo-producing seedlings in different Arabidopsis ecotypes: enhanced the number of somatic embryo-producing seedlings
Arabidopsis seedlings [1]; in presence of 2,4-D
  rank of percentage of seedlings with somatic embryos among screened compounds: induced the highest percentage of seedlings with somatic embryos
Arabidopsis seedlings [1]; none to 50 μM, fixed 1 μM 2,4-D, FIG. 5
  level of SE with increasing concentrations of compound: increases the level of SE
Germinating seeds; 25 μM C#3, 1 μM 2,4-D, scored after two weeks, FIG. 6
  time of addition giving best response: within the first two days of culture
Germinating seeds; 25 μM C#3 added after four days of culture
  enhancement of somatic embryogenesis on late addition: reached control levels
Arabidopsis seedlings [4]; 25 μM C#3, no 2,4-D, FIG. 7A
  somatic embryo formation in the absence of 2,4-D: not able to induce somatic embryo formation
Arabidopsis seedlings [4]; 25 μM C#3, up to 2 μM 2,4-D
  somatic embryo formation at all tested 2,4-D concentrations: did enhance somatic embryo formation

## O=C(O)Cc1cccc2ccccc12 [NAA, naphthalene-1-acetic acid, reference compound]
Arabidopsis seedlings [3]; 10 μM NAA, FIG. 8
  frequency of somatic embryogenesis with NAA alone: induced a low frequency of somatic embryogenesis
